{"source": "patent US20150272874A1", "about": "“PULMONARY DISEASE-SPECIFIC THERAPEUTIC AGENT” (CARDIO INCORPORATED, priority 2012, published 2015)", "key": {"[1]": {"settings": "cited from earlier work"}, "[2]": {"test_system": "MCT-induced mild pulmonary hypertension model", "settings": "mild disease model; Am J Respir Crit Care Med 169: 34-38-2004; cited from earlier work"}, "[3]": {"test_system": "monocrotaline (MCT) pulmonary hypertension models", "assay": "Pharmacological Effect Test 5: combined effect of ozagrel hydrochloride with Compounds 3 and 7, survival", "format": "in vivo, Slc;Wistar female rats", "settings": "oral twice a day until Day 42; Compound 3 or 7 0.1 mg/kg, ozagrel hydrochloride 100 mg/kg, alone or combined", "protocol": "After Slc;Wistar female rats (5 weeks old) were anesthetized with inhaled isoflurane, an aqueous monocrotaline (MCT) solution was subcutaneously administered into the dorsal region of each rat at a dose of 60 mg/kg (an injection volume of 3 mL/Kg) using a disposable syringe and a 27G disposable injection needle to prepare pulmonary hypertension models.\nFrom immediately after the MCT administration until Day 42, test substances were repeatedly administered orally twice a day as shown in the following table.\nThe test substances were suspended in 0.5% aqueous CMC-Na solutions, and the aqueous solutions were orally administered repeatedly at a dose of 5 mL/kg."}, "[4]": {"assay": "Maximum tolerated oral dose without blood-pressure-lowering effect", "format": "in vivo"}, "blood TXA2 concentration": {"test_system": "blood TXA2 concentration", "settings": "MCT rat models; Am J Respir Crit Care Med 172, 1575-1580 (2005); cited from earlier work"}, "[5]": {"assay": "Pharmacological Effect Test 3: Compound 1 content of the lungs (LC/MS/MS)", "format": "in vivo, Slc;Wistar male rats", "settings": "for Concentration of Compound 1 in the tissue: lung, individual animals, 1 mg/kg", "protocol": "Further, the Compound 1 contents of the lungs in Groups 3 and 4 were measured.\nA four-fold amount of a mixture of distilled water and ethanol relative to the lung weight was added to form a homogenate. Acetonitrile was added to a part of the homogenate and the resulting mixture was stirred. The centrifuged supernatant was collected and concentrated. After the concentrate was dissolved in a solvent, LC/MS/MS measurement was performed under the same conditions as in Preparation Test Example 2 to determine Compound 1 content of the lungs."}, "[6]": {"test_system": "Normal human newborn foreskin dermal fibroblasts (Fibrocell NHDF (NB))", "assay": "Pharmacological Effect Test 6: production of cytokines (ELISA) and PGs (EIA)", "format": "cell-based", "settings": "1 μM, 72 hours, n=3, M ± S.E.", "protocol": "Normal human newborn foreskin dermal fibroblasts (Fibrocell NHDF (NB)) provided from Kurabo Industries, Ltd., were cultured to confluency at […] (DMEM 10% FBS). Twenty-four hours after replacing the medium with (serum-free) DMEM, the medium was replaced with DMEM (0.2% FBS), and Compound 1 (1 μM) and a solvent (DMSO) was added. The cells were cultured for 72 hours (n=3).\nCytokines in the culture were measured by ELISA, and prostaglandins were measured by EIA.\nPGI2 was measured by using a degradation product of PGI2 (6-keto-PGF1α)."}, "[7]": {"settings": "cited from earlier work", "remark": "listed apart in the source"}, "TXA2 synthetase": {"biological_target": "T1, TXA2 synthetase (Rattus norvegicus, UniProt P49430)", "T1 construct": "endogenous in cells; host or cells: Whole animal dosed in vivo (rat inferred)", "T1 sequence (P49430 1-533)": "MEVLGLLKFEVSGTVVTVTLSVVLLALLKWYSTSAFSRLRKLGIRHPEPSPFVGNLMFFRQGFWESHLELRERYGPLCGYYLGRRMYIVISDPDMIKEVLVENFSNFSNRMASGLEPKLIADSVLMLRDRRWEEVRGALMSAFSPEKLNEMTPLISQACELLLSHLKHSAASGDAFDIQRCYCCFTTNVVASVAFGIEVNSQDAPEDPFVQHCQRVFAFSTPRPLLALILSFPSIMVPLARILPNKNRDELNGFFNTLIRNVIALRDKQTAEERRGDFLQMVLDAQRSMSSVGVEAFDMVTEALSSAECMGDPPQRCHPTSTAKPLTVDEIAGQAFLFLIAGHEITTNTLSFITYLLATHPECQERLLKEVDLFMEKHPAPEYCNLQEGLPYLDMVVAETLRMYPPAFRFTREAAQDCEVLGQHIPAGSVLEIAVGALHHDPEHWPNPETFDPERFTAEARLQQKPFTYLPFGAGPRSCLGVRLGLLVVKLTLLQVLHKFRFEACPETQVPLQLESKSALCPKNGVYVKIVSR", "assay": "Dose completely inhibiting TXA2 synthetase", "format": "in vivo", "settings": "oral dose"}}, "note": "“And” between values parts separate entries of the source, which are not always exact repeats. Equal entries are not always repeated. Structures can show the parent of a compound that is named as a salt.", "data": [{"smiles": "CC#CC[C@@H](C)[C@H](O)/C=C/[C@@H]1[C@H]2c3cccc(CCCC(=O)[O-])c3O[C@H]2C[C@H]1O.[Na+]", "note": "(racemic) [Compound 3, sodium (±)-(1R,2R,3aS,8bS)-2,3,3a,8b-tetrahydro-2-hydroxy-1-[(E)-(3S,4RS)-3-hydroxy-4-methyl-1-octen-6-ynyl]-1H-cyclopenta[b]benzofuran-5-butanoate]", "values": [{"measurement": "long-term effects", "setting": "[1]; after 1 year", "value": "no significant difference"}, {"measurement": "exercise tolerance", "setting": "[1]; relatively short-term (after 12 weeks)", "value": "improved"}, {"measurement": "combined effect with a PDEV inhibitor (sildenafil)", "setting": "[2]", "value": "synergistic effect"}, {"measurement": "efficacy administered alone", "setting": "[2]", "value": "efficacious"}, {"measurement": "survival rate vs medium-administered group", "setting": "[3]", "value": "no survival prolongation effect"}, {"measurement": "MTD", "setting": "[4]; Slc:Wistar, rat, in vivo, read-out: maximum tolerated dose that does not show blood-pressure-lowering effect", "value": 0.1, "unit": "mg/kg"}]}, {"smiles": "O=C(O)COc1cccc2c1CCC=C2CCO/N=C(\\c1ccccc1)c1cccnc1", "note": "[Compound 1, (E)-[5-[2-[1-phenyl-1-(3-pyridyl)methylideneaminooxy]ethyl]-7,8-dihydronaphthalen-1-yloxy]acetic acid]", "values": [{"measurement": "blood TXA2 concentration", "setting": "blood TXA2 concentration", "value": "inhibits an increase"}, {"measurement": "average concentration in lung tissue", "setting": "[5]; Group 3: Preparation Example 1 single i.v. 1 mg/kg", "value": 76.35, "unit": "ng/g"}, {"measurement": "average concentration in lung tissue", "setting": "[5]; Group 4: Preparation Example 1 single s.c. 1 mg/kg", "value": 0.659, "unit": "ng/g"}, {"measurement": "concentration in lung tissue, intravenous compared to subcutaneous injection", "setting": "[5]; i.v. 1 mg/kg vs s.c. 1 mg/kg", "value": "about 120 fold"}, {"measurement": "ratio of Group 3 to Group 4, concentration in lung tissue", "setting": "[5]; i.v. 1 mg/kg vs s.c. 1 mg/kg", "value": 115.9}, {"measurement": "Concentration of Compound 1 in the tissue", "setting": "[5]; Group 3 (1 mg/kg) of Preparation Example 1", "value": "50.0 ng/g and 99.2 ng/g and 45.2 ng/g and 111 ng/g"}, {"measurement": "Concentration of Compound 1 in the tissue", "setting": "[5]; Group 4 (1 mg/kg) as printed, Preparation Example 1", "value": "1.06 ng/g and 0.258 ng/g"}, {"measurement": "6-keto-PGF1α (PGI2)", "setting": "[6]", "value": "44.5 ± 4.014", "unit": "pg/mL"}, {"measurement": "G-CSF", "setting": "[6]", "value": "28.71 ± 6.110", "unit": "pg/mL"}, {"measurement": "HGF", "setting": "[6]", "value": "102.60 ± 15.658", "unit": "pg/mL"}, {"measurement": "HMGB1", "setting": "[6]", "value": "1.480 ± 0.147", "unit": "ng/mL"}, {"measurement": "PGE2", "setting": "[6]", "value": "38.1 ± 6.392"}, {"measurement": "SDF-1α", "setting": "[6]", "value": "2457.46 ± 231.884", "unit": "pg/mL"}, {"measurement": "VEGF", "setting": "[6]", "value": "38.44 ± 11.857", "unit": "pg/mL"}]}, {"smiles": "CCCC[C@H](C)C[C@H](O)/C=C/[C@H]1[C@H](O)CC(=O)[C@@H]1CC(=O)CCCCC(=O)OC", "note": "[Compound 7, 17S,20-dimethyl-6-oxo-prostaglandin E1 methyl ester]", "values": [{"measurement": "survival rate vs medium-administered group", "setting": "[3]", "value": "no survival prolongation effect"}, {"measurement": "maximum tolerated dose that does not show blood-pressure-lowering effect", "setting": "[4]", "value": 0.1, "unit": "mg/kg"}]}, {"smiles": "CCCCC[C@H](O)/C=C/[C@@H]1[C@H]2C/C(=C/CCCC(=O)O)O[C@H]2C[C@H]1O", "note": "[Epoprostenol sodium, reference compound]", "values": [{"measurement": "blood TXA2 concentration", "setting": "blood TXA2 concentration", "value": "further increases"}, {"measurement": "half-life", "setting": "[7]", "value": "about 6 minutes"}]}, {"smiles": "O=C(O)/C=C/c1ccc(Cn2ccnc2)cc1", "note": "[ozagrel hydrochloride]", "values": [{"measurement": "amount that completely inhibits the TXA2 synthetase", "setting": "TXA2 synthetase", "value": 100, "unit": "mg/kg"}, {"measurement": "survival rate vs medium-administered group", "setting": "[3]", "value": "no survival prolongation effect"}]}]}
